# Source: patent US11771086B2, “Pest control composition including novel iminopyridine derivative” (priority 2012, dated 2023)
# Legend:
# Plutella xylostella [1] = assay: Reference Test Example 1 Pest control test of Plutella xylostella (foliar treatment, single agent); type: in vivo
# Text: (§1) After an air drying process, second instar larvae were released thereto. […] Test in duplicate.
# Spodoptera litura = assay: Reference Test Example 2 Pest control test of Spodoptera litura (foliar treatment, single agent); type: in vivo; details: 72 h
# Text: After an air drying process, third instar larvae were released thereto. […] Test in duplicate.
# Aphis gossypii [2] = assay: Reference Test Example 3 Pest control test of Aphis gossypii (foliar treatment, single agent); type: in vivo
# Experimental: After an air drying process, first instar larvae were released thereto. Thereafter, the larvae were left to stand in a thermostatic chamber (16 hours of light period-8 hours of dark period) at 25° C. […] Test in duplicate. Mortality (%)={number of dead larvae/(number of survived larvae+number of dead larvae)}×100
# Laodelphax striatella [3] = assay: Reference Test Example 4 Pest control test of Laodelphax striatella (foliar treatment, single agent); type: in vivo; details: Laodelphax striatellus, 72 h
# Text: as §1
# Nilaparvata lugens = assay: Reference Test Example 5 Pest control test of Nilaparvata lugens (foliar treatment, single agent); type: in vivo; details: 144 h
# Text: as §1
# Sogatella furcifera = assay: Reference Test Example 6 Pest control test of Sogatella furcifera (foliar treatment, single agent); type: in vivo; details: 96 h
# Text: as §1
# [4] = system: Frankliniella occidentalis; assay: Reference Test Example 9 Pest control test of Frankliniella occidentalis (foliar treatment, single agent); type: in vivo; details: 72 h
# Experimental: After an air drying process, first instar larvae were released to the leaf disk. Thereafter, the larvae were left to stand in a thermostatic chamber (16 hours of light period-8 hours of dark period) at 25° C. […] Test in duplicate. Mortality of larvae (%)={number of dead larvae/(number of survived larvae+number of dead larvae)}×100
# [5] = system: Trigonotylus caelestialium; assay: Reference Test Example 10 Pest control test of Trigonotylus caelestialium (dipping treatment); type: in vivo; details: 72 h
# Experimental: After an air drying process, the wheat seedling leaves and stems were placed into a glass tube, and two second instar larvae of Trigonotylus coelestialium were released to the same glass tube. After the larvae were released, the tube was lidded to leave the larvae to stand in a thermostatic chamber at 25° C. In order to supply water to the wheat during the test, water was given to the wheat from the bottom of the glass tube. […] Test in triplicate.
# Laodelphax striatella [6] = assay: Reference Test Example 18 Pest control test of Laodelphax striatella (wheat seedling root treatment); type: in vivo; details: wheat seedling roots treated; four days after release; 20 μg/seedling
# Experimental: The drug was absorbed from the roots for 72 hours, and then ten second instar larvae of Laodelphax striatella were each released thereto. […] The test was performed in duplicate.
# [7] = system: Nilaparvata lugens susceptible species (highly susceptible to imidacloprid); assay: Reference Test Example 19 Pest control test of Nilaparvata lugens, imidacloprid susceptible species (soil drench); type: in vivo; details: for Insecticidal effects against Nilaparvata lugens (death rate %), Susceptible population: soil drench, six days
# Experimental: (§2) Three days after the treatment, ten second instar larvae of Nilaparvata lugens, which had been collected outdoors and proliferated indoors, were each released to the rice seedling. […] Test in duplicate.
# (§3) Furthermore, for comparison, the test against a species of Nilaparvata lugens which is highly susceptible to imidacloprid was performed by the same method as described above, and the results thereof are shown in Table 45. […] Meanwhile, the death rates of imidacloprid at 0.05 mg/seedling were (susceptible species) 100%, (resistant population I) 38% and (resistant population II) 69%, and the insecticidal effect thereof was also low even at a high dose. From the above results, it became obvious that Compound P212 and Compound 1-20 have high insecticidal effects even against Nilaparvata lugens resistance against imidacloprid.
# (§4) Further, for the origin of test pests, bugs collected outdoors from the Kumamoto prefecture (I) in 2007 and from the Fukuoka prefecture (II) in 2005 as resistant population of Nilaparvata lugens, and bugs collected from the Kagoshima prefecture and then successively reared indoors for a long time as the imidacloprid susceptible population of Nilaparvata lugens were used.
# [8] = system: Nilaparvata lugens resistant population I; assay: Reference Test Example 19 Pest control test of Nilaparvata lugens, resistant population I (soil drench); type: in vivo; details: for Insecticidal effects against Nilaparvata lugens (death rate %), Resistant population I: soil drench, six days
# Experimental: as §2, §3, §4
# [9] = system: Nilaparvata lugens resistant population II; assay: Reference Test Example 19 Pest control test of Nilaparvata lugens, resistant population II (soil drench); type: in vivo; details: for Insecticidal effects against Nilaparvata lugens (death rate %), Resistant population II: soil drench, six days
# Experimental: as §2, §3, §4
# Laodelphax striatella [10] = assay: whole plant or invertebrate; details: Laodelphax striatellus, soil, 72 h, soil irrigation; for mortality at 0.005 mg/seedling: read-out: Mortality of single agent against Laodelphax striatella, single agent 0.005 mg/Seedling
# Experimental: After the rice seedling was left to stand for 3 days, second instar larvae were released thereto. Thereafter, the larvae were left to stand in a thermostatic chamber (16 hours of light period-8 hours of dark period) at 25° C. […] The test was performed in duplicate. Mortality of larvae (%)={number of dead larvae/(number of survived larvae+number of dead larvae)}×100
# B: 100−(mortality of larvae or adults when treated only with each of imidacloprid, fipronil, chlorantraniliprole, spinosad, clothianidin, dinotefuran, sulfoxaflor, pymetrozine, thiamethoxam, flupyradifurone and cycloxaprid))
# (§5) Method for Judging Synergistic Effects
# When the mortality against Laodelphax striatella in the case of a mixture with another agent exceeded the theoretical value by the Colby's equation, a synergistic effect was judged to be present.
# Laodelphax striatella [11] = assay: whole plant or invertebrate; type: in vivo
# Experimental: (§6) After an air drying process, second instar larvae were released thereto. […] The test was performed in duplicate.
# as §5
# Aphis gossypii [12] = assay: whole plant or invertebrate; type: in vivo; details: Aphis gossypii
# Experimental: The test was performed in duplicate.
# as §5
# Plutella xylostella [13] = assay: whole plant or invertebrate; type: in vivo
# Experimental: as §6, §5
# Chilo suppressalis = type: in vivo; details: single agent 0.0005 mg/seedling; soil irrigation; six days after release
# Experimental: After standing for 3 days, second instar larvae were released thereto. […] The test was performed in duplicate.
# as §5
# Naranga aenescens = type: in vivo; details: single agent 0.01 mg/seedling; soil irrigation; five days after release
# Experimental: After standing for 3 days, first instar larvae were released thereto. […] The test was performed in duplicate.
# as §5
# Callosobruchus chinensis = type: in vivo; details: single agent 0.2 ng/head; topical; one day
# Experimental: A compound of Formula (I) and the insecticide indicated below, prepared in predetermined concentrations using acetone, were separately topically applied to the back of the same adult Callosobruchus chinensis. […] The test was performed in duplicate. Insect mortality (%)={number of dead insects/(number of survived insects+number of dead insects)}×100
# (A: 100−(insect mortality for treatment with only Compound P212)
# B: 100−(insect mortality for treatment with only the insecticide fipronil or imidacloprid))
# as §5
# [14] = type: in vivo; details: single agent 0.125 mg/seedling; soil irrigation; seven days after inoculation
# [15] = system: Frankliniella occidentalis; assay: whole plant or invertebrate
# Experimental: After an air drying process, first instar larvae were released thereto. Thereafter, the larvae were left to stand in a thermostatic chamber (16 hours of light period-8 hours of dark period) at 25° C. […] The test was performed in duplicate. Mortality of larvae (%)={number of dead larvae/(number of survived larvae+number of dead larvae)}×100
# (A: 100−(mortality of larvae or adults when treated only with Compound P212)
# B: 100−(mortality of larvae or adults when treated with only the insecticide imidacloprid, dinotefuran, or acetamiprid))
# as §5
# When the mortality against Frankliniella occidentalis in the case of a mixture with another agent exceeded the theoretical value given by Colby's equation, a synergistic effect was judged to be present.
# [16] = system: Haemaphysalis longicornis; assay: whole plant or invertebrate; type: in vivo; details: Haemaphysalis longicornis, topical, 120 h, read-out: Mortality of single agent against Haemaphysalis longicornis, single agent 1.9 μg; capsule on mouse; five days; mortality and agonal rate
# Experimental: A capsule with a diameter of 2 cm and a height of 2 cm was attached to the dorsal surface of a mouse. A compound of Formula (I), ivermectin, moxidectin, permethrin, amitraz, fipronil, spinetram and the mixture of the compound of Formula (I) and each insecticide were dissolved in ethanol at the concentrations given in […], and each of these was dripped onto the surface of a mouse body within a capsule. After thorough drying, eight Haemaphysalis longicornis nymphs were released and the top of the capsule was sealed with a lid. The mouse was kept in a cage at 25° C. using a 12-hour light period and a 12-hour dark period. Five days after the release, the capsule was removed and the number of surviving and dead nymphs and the number of engorged individuals were counted and the insect mortality and agonal rate was calculated by the following equation. Insect mortality and agonal rate (%)={number of dead and agonal insects/(number of survived insects+number of dead and agonal insects)}×100
structure (smiles),measurement,setting,value
"FC(F)(F)C(=S)/N=c1\ccccn1Cc1ccc(Cl)nc1 [Compound 1-20, N-[1-((6-chloropyridin-3-yl)methyl)pyridin-2(1H)-ylidene]-2,2,2-trifluoroethanethioamide]",mortality at 100 ppm,"Plutella xylostella [1]; Plutella xylostella, foliar, 72 h",≥ 80%
same,"Plutella xylostella (Reference Test Example 1), mortality of larvae","Plutella xylostella [1]; foliar treatment, single agent",100%
same,mortality at 500 ppm,Spodoptera litura,≥ 80%
same,mortality at 100 ppm,"Aphis gossypii [2]; Aphis gossypii, foliar, 72 h",≥ 80%
same,"Aphis gossypii (Reference Test Example 3), mortality of larvae","Aphis gossypii [2]; foliar treatment, single agent",100%
same,mortality at 100 ppm,Laodelphax striatella [3],≥ 80%
same,mortality at 100 ppm,Nilaparvata lugens,≥ 80%
same,mortality at 100 ppm,Sogatella furcifera,≥ 80%
same,mortality at 500 ppm,[4],≥ 80%
same,mortality at 50 ppm,[5],≥ 80%
same,"Laodelphax striatella (Reference Test Example 18), mortality of larvae",Laodelphax striatella [6],100%
same,death rates of larvae,"[7]; susceptible species, 0.005 mg/seedling, six days after the release",100%
same,"Insecticidal effects against Nilaparvata lugens (death rate %), Susceptible population",[7]; throughput 0.005 mg/seedling,100%
same,"Insecticidal effects against Nilaparvata lugens (death rate %), Susceptible population",[7]; throughput 0.01 mg/seedling,95%
same,death rates of larvae,"[8]; resistant population I, 0.005 mg/seedling, six days after the release",77%
same,"Insecticidal effects against Nilaparvata lugens (death rate %), Resistant population I",[8]; throughput 0.005 mg/seedling,77%
same,"Insecticidal effects against Nilaparvata lugens (death rate %), Resistant population I",[8]; throughput 0.01 mg/seedling,100%
same,death rates of larvae,"[9]; resistant population II, 0.005 mg/seedling, six days after the release",85%
same,"Insecticidal effects against Nilaparvata lugens (death rate %), Resistant population II",[9]; throughput 0.005 mg/seedling,85%
same,"Insecticidal effects against Nilaparvata lugens (death rate %), Resistant population II",[9]; throughput 0.01 mg/seedling,100%
same,mortality at 0.005 mg/seedling,Laodelphax striatella [10],12%
same,Theoretical value by Colby's equation,"Laodelphax striatella [11]; Laodelphax striatella foliar, single agent 0.625 ppm (other component 0)",90%
same,mortality at 0.625 ppm,"Laodelphax striatella [11]; Laodelphax striatellus, foliar, 72 h, read-out: Mortality of single agent against Laodelphax striatella",90%
same,mortality at 0.625 ppm,"Aphis gossypii [12]; foliar, 72 h, read-out: Mortality of single agent against Aphis gossypii",19%
same,Theoretical value by Colby's equation,Aphis gossypii [12]; single agent 0.625 ppm (other component 0),19%
N#Cc1nn(-c2c(Cl)cc(C(F)(F)F)cc2Cl)c(N)c1[S+]([O-])C(F)(F)F (centres unmarked) [Fipronil],mortality at 0.001 mg/seedling,"Laodelphax striatella [10]; read-out: Mortality of single agent against Laodelphax striatella, single agent 0.001 mg/Seedling",0%
same,mortality at 0.005 mg/seedling,Laodelphax striatella [10],26%
same,Theoretical value by Colby's equation,Plutella xylostella [13]; 0.04 ppm,50%
same,mortality at 0.04 ppm,"Plutella xylostella [13]; Plutella xylostella, foliar, 72 h, read-out: Mortality of single agent against Plutella xylostella, single agent 0.04 ppm, cabbage leaf disk spray, three days",50%
same,Mortality of single agent against Chilo suppressalis,Chilo suppressalis,40%
same,Mortality of single agent against Naranga aenescens,Naranga aenescens,20%
same,Mortality of single agent against Callosobruchus chinensis,Callosobruchus chinensis,0%
C=CCOC1=NS(=O)(=O)c2ccccc21 [Probenazole],mortality at 0.5 mg/seedling,"Laodelphax striatella [10]; read-out: Mortality of single agent against Laodelphax striatella, single agent 0.5 mg/Seedling",9%
same,"Preventive value (rice blast, number of lesions)",[14],96.7
"O=[N+]([O-])NC1=NCCN1Cc1ccc(Cl)nc1 [imidacloprid, reference compound]",death rates,"[7]; susceptible species, 0.05 mg/seedling, six days after the release",100%
same,"Insecticidal effects against Nilaparvata lugens (death rate %), Susceptible population",[7]; throughput 0.01 mg/seedling,100%
same,"Insecticidal effects against Nilaparvata lugens (death rate %), Susceptible population",[7]; throughput 0.05 mg/seedling,100%
same,death rates,"[8]; resistant population I, 0.05 mg/seedling, six days after the release",38%
same,"Insecticidal effects against Nilaparvata lugens (death rate %), Resistant population I",[8]; throughput 0.05 mg/seedling,38%
same,death rates,"[9]; resistant population II, 0.05 mg/seedling, six days after the release",69%
same,"Insecticidal effects against Nilaparvata lugens (death rate %), Resistant population II",[9]; throughput 0.01 mg/seedling,39%
same,"Insecticidal effects against Nilaparvata lugens (death rate %), Resistant population II",[9]; throughput 0.05 mg/seedling,69%
same,mortality at 0.005 mg/seedling,Laodelphax striatella [10],0%
same,Theoretical value by Colby's equation,[15]; 20 ppm,69%
same,mortality at 20 ppm,"[15]; Frankliniella occidentalis, foliar, 72 h, read-out: Mortality of single agent against Frankliniella occidentalis",69%
same,Mortality of single agent against Callosobruchus chinensis,Callosobruchus chinensis,40%
same,mortality at 0.0019 mg,[16],7.7%
